Assay results taken from paper PMC7591795, “Humulone Modulation of GABAA Receptors and Its Role in Hops Sleep-Promoting Activity” (Frontiers in Neuroscience, 2020).
“Also recorded” adds a separate entry of the source.

Experiments:
[1] = tested on: native GABAA receptors in rat forebrain membranes; assay: [3H]EBOB binding assay, rat forebrain membranes; settings: each compound 1 μM, GABA 3 μM, n = 3
Procedure: (§1) The protein concentrations of brain membranes were determined with the Bio-Rad Coomassie blue dye-based protein assay kit (Hercules, CA, United States) as per the manufacturer’s protocol. Transfected HEK293 cells were harvested 48 h after transfection using a detaching buffer (10 mM Tris-HCl, 0.15 M NaCl, 2 mM EDTA) and centrifuged at 20,000 g for 10 min at +4 °C. The resulting pellets were suspended in the assay buffer for binding assays.
(§2) In humulone concentration series with recombinant α6β3, α6β3γ2S, and α6β3δ receptors, HEK293 cell membranes were incubated in the same above conditions for 120 min with [^3H]EBOB (1 nM) and different concentrations of humulone (30 nM–30 μM) in the presence or absence of ethanol (30 mM). […] Picrotoxin (100 μM) was used to determine the non-specific binding in all assays.
(§3) Membrane samples were filtered through Whatman GF/B glass fiber filters (Whatman International Ltd., Maidstone, United Kingdom) using a Brandel Cell Harvester (model M-24, Gaithersburg, MD, United States). The filters were rinsed three times with 5 mL of ice-cold 10 mM Tris-HCl, pH 7.4 buffer. Air-dried filters were immersed in 3 mL of Hidex AquaLight Beta scintillation liquid and radioactivity was determined in Hidex 600 SL liquid scintillation counter (Hidex, Turku, Finland).

[2] = tested on: native αβγ2 GABAA receptors, classical benzodiazepine binding site; parameters: method as in Benkherouf et al., 2019, 2020; settings: ref Benkherouf et al., 2019, 2020; cited from earlier work
[3] = tested on: native GABAA receptors in rat forebrain membranes; parameters: method as in Benkherouf et al., 2020; settings: ref Benkherouf et al., 2020; cited from earlier work
[4] = tested on: GABAA receptors; parameters: method as in Benkherouf et al., 2020; settings: ref Benkherouf et al., 2020; cited from earlier work
[5] = biological target: T1, recombinant α6β3γ2 GABAA receptors (Rattus norvegicus, UniProt P18508+P30191+P63079); assay: [3H]EBOB binding assay, recombinant α6β3γ2 receptors in HEK293 cell membranes; settings: GABA 3 μM
T1 construct: expressed in transfected cells; host or cells: HEK293 cells, transient CaPO4 transfection, pRK5 plasmids; cell membranes used
Procedure: (§4) The cells were divided and plated on 150 mm culture dishes for binding assays and 12 mm coverslips in 24-well cell culture plates for electrophysiology 24 h before transfection.
(§5) The cells were transiently transfected with rat cDNAs encoding GABAA receptor subunits (α1, L08490; α6, L08495; β3, X15468; γ2S, L08497; δ, L08496) in pRK5 plasmids under the control of CMV promoter ([Uusi-Oukari et al., 2000]). The plasmids were used in 1:1 and 1:1:1 ratio for transfections containing α1β3γ2S, α6β3, α6β3γ2S, and α6β3δ receptor subtypes. […] (Supplementary Figure S1). For electrophysiology, K4® transfection system (Biontex, München, Germany) was used according to the manufacturer’s protocol to increase expression efficiency and cell viability. […] The medium was changed 24 h after transfection and all experiments were performed 48 h after transfection.
as §1, §2, §3

[6] = biological target: T2, recombinant α6β3 GABAA receptors (Rattus norvegicus, UniProt P30191+P63079); assay: [3H]EBOB binding assay, recombinant α6β3 receptors in HEK293 cell membranes; settings: GABA 3 μM
T2 construct: expressed in transfected cells; host or cells: HEK293 cells, transient CaPO4 transfection, pRK5 plasmids (1:1); cell membranes used
Procedure: as §4, §5, §1, §2, §3

[7] = biological target: T3, recombinant α6β3δ GABAA receptors (Rattus norvegicus, UniProt P18506+P30191+P63079); assay: [3H]EBOB binding assay, recombinant α6β3δ receptors in HEK293 cell membranes; settings: GABA 3 μM, α6β3δ
T3 construct: expressed in transfected cells; host or cells: HEK293 cells, transient CaPO4 transfection, pRK5 plasmids; cell membranes used
Procedure: as §4, §5, §1, §2, §3

[8] = tested on: native GABAA receptors in rat cerebellar membranes; assay type: binding
Procedure: as §1, §2, §3

[9] = ethanol 30 mM co-incubated with humulone 1 μM

T2 sequence (P30191 20-453): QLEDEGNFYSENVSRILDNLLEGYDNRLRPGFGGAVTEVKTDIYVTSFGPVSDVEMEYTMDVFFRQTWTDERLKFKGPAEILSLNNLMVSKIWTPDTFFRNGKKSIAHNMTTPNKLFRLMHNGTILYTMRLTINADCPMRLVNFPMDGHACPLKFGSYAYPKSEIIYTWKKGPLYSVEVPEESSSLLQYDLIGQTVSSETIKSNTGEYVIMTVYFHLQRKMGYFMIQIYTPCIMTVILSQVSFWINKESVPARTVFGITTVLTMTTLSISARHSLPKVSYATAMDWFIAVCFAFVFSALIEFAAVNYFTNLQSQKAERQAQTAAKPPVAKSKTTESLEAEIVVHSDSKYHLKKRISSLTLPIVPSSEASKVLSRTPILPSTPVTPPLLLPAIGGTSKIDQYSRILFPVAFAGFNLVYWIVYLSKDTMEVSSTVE
T2 sequence (P63079 26-473): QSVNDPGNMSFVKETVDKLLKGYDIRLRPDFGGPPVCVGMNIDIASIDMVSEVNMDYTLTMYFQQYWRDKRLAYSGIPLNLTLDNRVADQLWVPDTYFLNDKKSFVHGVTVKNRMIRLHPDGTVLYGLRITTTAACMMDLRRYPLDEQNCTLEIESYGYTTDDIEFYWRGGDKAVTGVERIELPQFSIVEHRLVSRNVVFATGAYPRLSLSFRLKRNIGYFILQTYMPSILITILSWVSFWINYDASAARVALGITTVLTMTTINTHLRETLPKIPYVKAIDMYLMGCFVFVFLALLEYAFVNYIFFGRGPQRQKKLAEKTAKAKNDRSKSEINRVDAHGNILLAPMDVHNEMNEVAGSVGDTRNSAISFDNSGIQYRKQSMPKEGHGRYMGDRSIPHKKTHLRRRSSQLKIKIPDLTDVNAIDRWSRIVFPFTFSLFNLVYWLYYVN
T3 sequence (P30191 20-453): as the sequence (P30191 20-453) above
T3 sequence (P63079 26-473): as the sequence (P63079 26-473) above
T3 sequence (P18506 25-449): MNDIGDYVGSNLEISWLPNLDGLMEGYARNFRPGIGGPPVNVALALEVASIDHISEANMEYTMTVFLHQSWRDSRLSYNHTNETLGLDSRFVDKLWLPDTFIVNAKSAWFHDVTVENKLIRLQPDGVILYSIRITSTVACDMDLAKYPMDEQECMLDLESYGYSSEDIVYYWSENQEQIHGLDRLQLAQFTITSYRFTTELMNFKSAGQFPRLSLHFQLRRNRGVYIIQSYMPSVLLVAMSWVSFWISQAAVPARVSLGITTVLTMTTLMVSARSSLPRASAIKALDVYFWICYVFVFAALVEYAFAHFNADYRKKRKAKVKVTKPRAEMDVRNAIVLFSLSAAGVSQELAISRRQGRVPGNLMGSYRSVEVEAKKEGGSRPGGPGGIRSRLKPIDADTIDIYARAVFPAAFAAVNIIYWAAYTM
T1 sequence (P30191 20-453): as the sequence (P30191 20-453) above
T1 sequence (P63079 26-473): as the sequence (P63079 26-473) above
T1 sequence (P18508 39-466): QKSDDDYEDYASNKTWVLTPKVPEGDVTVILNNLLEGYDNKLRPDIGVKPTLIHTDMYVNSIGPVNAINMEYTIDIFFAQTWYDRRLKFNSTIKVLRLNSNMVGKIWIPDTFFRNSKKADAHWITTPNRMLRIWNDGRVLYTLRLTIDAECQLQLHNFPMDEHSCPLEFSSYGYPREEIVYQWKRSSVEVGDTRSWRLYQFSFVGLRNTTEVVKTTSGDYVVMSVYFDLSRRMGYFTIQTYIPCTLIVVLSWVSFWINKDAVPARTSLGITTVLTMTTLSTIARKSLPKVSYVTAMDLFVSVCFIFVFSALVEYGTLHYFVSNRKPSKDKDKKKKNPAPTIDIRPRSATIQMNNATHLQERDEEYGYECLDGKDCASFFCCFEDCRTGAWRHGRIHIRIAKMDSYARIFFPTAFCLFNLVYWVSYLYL

## CC(C)=CCc1c(O)cc2c(c1O)C(=O)C[C@@H](c1ccc(O)cc1)O2 [6PN, 6-prenylnaringenin]
[1]
  [3H]EBOB displacement normalized to the maximum radioligand binding in the presence of 3 μM GABA alone: 14.2 ± 1.4%
[2]
  displacement of [3H]Ro 15-4513 binding (benzodiazepine binding site): remarkably more efficient
[3]
  sensitivity of modulatory effect on [3H]EBOB binding to flumazenil antagonism: insensitivity

## COc1cc(O)c(CC=C(C)C)c2c1C(=O)CC(c1ccc(O)cc1)O2 (stereo not shown) [IXN, isoxanthohumol]
[1]
  [3H]EBOB displacement normalized to the maximum radioligand binding in the presence of 3 μM GABA alone: 14.4 ± 0.9%

## CCC(C)C(=O)C1=C(O)C(CC=C(C)C)=C(O)C(O)(CC=C(C)C)C1=O (stereo not shown) [adhumulone]
[4]
  modulatory effects on GABAA receptors: weak modulatory effects

## CC(C)=CCC1=C(O)C(O)(CC=C(C)C)C(=O)C(C(=O)C(C)C)=C1O (stereo not shown) [cohumulone]
[4]
  modulatory effects on GABAA receptors: weak modulatory effects

## CCO [ethanol]
[5]; [9]
  ethanol enhancement of humulone-mediated [3H]EBOB displacement: did not alter; also recorded: did not enhance
[5]; ethanol 30 mM
  effect of ethanol alone on GABA-induced [3H]EBOB binding: unaffected
[6]; [9]
  ethanol enhancement of humulone-mediated [3H]EBOB displacement: did not alter; also recorded: did not enhance
[6]; ethanol 30 mM
  effect of ethanol alone on GABA-induced [3H]EBOB binding: unaffected
[7]; [9]
  ethanol enhancement of humulone-mediated [3H]EBOB displacement: did not significantly enhance
[7]; ethanol 30 mM
  effect of ethanol alone on GABA-induced [3H]EBOB displacement: no effect; also recorded: unaffected
[8]
  effect of ethanol solely on [3H]EBOB binding: neither displaces nor modulates
